{"source": "ChEMBL document CHEMBL5331061", "about": "“Design, synthesis, and biological evaluation of Wee1 kinase degraders” (Eur J Med Chem, 2022)", "key": {"[1]": {"tested_on": "MV4-11", "test": "Effect on PKMYT1 mRNA expression in human MV4-11 cells at 50 nM measured upto 72 hrs by qRT-PCR assay", "assay_type": "functional, cell-based"}, "[2]": {"tested_on": "MV4-11", "test": "Induction of apoptosis in human MV4-11 cells assessed as increase in early apoptotic cells incubated for 48 hrs by annexin V and PI staining based flow cytometry analysis", "assay_type": "functional, cell-based", "settings": "dose 12.5-200 nM"}, "[3]": {"tested_on": "MV4-11", "test": "Induction of apoptosis in human MV4-11 cells assessed as increase in late apoptotic cells incubated for 48 hrs by annexin V and PI staining based flow cytometry analysis", "assay_type": "functional, cell-based", "settings": "dose 12.5-200 nM"}, "[4]": {"molecular_target": "Cyclin-dependent kinase 1 (Homo sapiens) (UniProt P06493)", "sequence (P06493 whole entry, looked up)": "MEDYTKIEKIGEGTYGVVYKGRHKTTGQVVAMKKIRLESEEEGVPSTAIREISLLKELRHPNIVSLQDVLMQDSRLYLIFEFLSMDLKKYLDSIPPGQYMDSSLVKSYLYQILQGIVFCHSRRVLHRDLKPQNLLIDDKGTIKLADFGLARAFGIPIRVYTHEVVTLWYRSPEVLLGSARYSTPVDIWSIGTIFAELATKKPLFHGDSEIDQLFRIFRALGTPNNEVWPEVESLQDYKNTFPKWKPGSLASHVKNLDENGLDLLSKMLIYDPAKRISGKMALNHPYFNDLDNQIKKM", "test": "Inhibition of CDK1 phosphorylation in human MV4-11 cells assessed as reduction in phosphorylated CDK1 level by measuring residual activity at 50 uM pretreated for 2 hrs with proteasome inhibitor lenalidomide followed by incubation with compound for 3 hrs by Western blot analysis (reference value: 29%)", "assay_type": "cell-based"}, "[5]": {"tested_on": "MV4-11", "test": "Effect on PLK1 expression in human MV4-11 cells at IC50 measured after 6 hrs by Western blot analysis", "assay_type": "functional, cell-based"}, "[6]": {"molecular_target": "Cyclin-dependent kinase 1 (Homo sapiens) (UniProt P06493)", "test": "Inhibition of CDK1 phosphorylation in human MV4-11 cells by measuring residual activity at 200 nM measured after 24 hrs by Western blot assay", "assay_type": "cell-based"}, "[7]": {"molecular_target": "Cyclin-dependent kinase 1 (Homo sapiens) (UniProt P06493)", "test": "Inhibition of CDK1 phosphorylation in human MV4-11 cells by measuring residual activity at 25 nM measured after 24 hrs by Western blot assay", "assay_type": "cell-based"}, "[8]": {"molecular_target": "Cyclin-dependent kinase 1 (Homo sapiens) (UniProt P06493)", "test": "Inhibition of CDK1 phosphorylation in human MV4-11 cells by measuring residual activity at 100 nM measured after 24 hrs by Western blot assay", "assay_type": "cell-based"}, "[9]": {"test": "Downregulation of PLK1 in human MV4-11 cells assessed as 2 log fold change at 50 nM measured after 2 hrs by proteomic analysis", "assay_type": "functional"}, "[10]": {"tested_on": "MV4-11", "test": "Effect on PLK1 mRNA expression in human MV4-11 cells at 50 nM measured upto 72 hrs by qRT-PCR assay", "assay_type": "functional, cell-based"}, "[11]": {"test": "Downregulation of JAK2 in human MV4-11 cells assessed as 2 log fold change at 50 nM measured after 2 hrs by proteomic analysis", "assay_type": "functional"}, "[12]": {"tested_on": "MV4-11", "test": "Induction of apoptosis in human MV4-11 cells assessed as cleaved caspase-3 expression at 100 nM incubated for 24 hrs by Western blot analysis", "assay_type": "functional, cell-based"}, "[13]": {"molecular_target": "Cyclin-dependent kinase 1 (Homo sapiens) (UniProt P06493)", "test": "Inhibition of CDK1 phosphorylation in human MV4-11 cells assessed as reduction in phosphorylated CDK1 level by measuring residual activity at 50 uM pretreated for 2 hrs with proteasome inhibitor carfilzomib followed by incubation with compound for 3 hrs by Western blot analysis (reference value: 29%)", "assay_type": "cell-based"}, "[14]": {"test": "AUClast in ICR mouse at 10 mg/kg, iv measured upto 360 mins", "assay_type": "ADME, organism-based", "parameters": "dose 10 mg/kg, time < 360 min, route iv", "settings": "in vivo"}, "[15]": {"tested_on": "MV4-11", "test": "Induction of cell cycle arrest in human MV4-11 cells assessed as accumulation of cells at G0/G1 phase incubated for 24 hrs by […] PI staining based flow cytometry analysis", "assay_type": "functional", "settings": "dose 12.5-200 nM"}, "[16]": {"test": "Reduction in PKMYT1 level in human MV4-11 cells by measuring residual activity at 200 nM measured after 24 hrs by Western blot assay (reference value: 100%)", "assay_type": "functional"}, "[17]": {"test": "Reduction in PKMYT1 level in human MV4-11 cells by measuring residual activity at 100 nM measured after 24 hrs by Western blot assay (reference value: 100%)", "assay_type": "functional"}, "[18]": {"tested_on": "MV4-11", "test": "Induction of […] in human MV4-11 cells assessed as change in gammaH2AX level at 12.5 to 200 nM measured after 24 hrs by Western blot analysis", "assay_type": "functional, cell-based", "settings": "dose 12.5-200 nM"}, "[19]": {"molecular_target": "Serine/threonine-protein kinase PLK1 (Homo sapiens, UniProt P53350)", "sequence (P53350 whole entry)": "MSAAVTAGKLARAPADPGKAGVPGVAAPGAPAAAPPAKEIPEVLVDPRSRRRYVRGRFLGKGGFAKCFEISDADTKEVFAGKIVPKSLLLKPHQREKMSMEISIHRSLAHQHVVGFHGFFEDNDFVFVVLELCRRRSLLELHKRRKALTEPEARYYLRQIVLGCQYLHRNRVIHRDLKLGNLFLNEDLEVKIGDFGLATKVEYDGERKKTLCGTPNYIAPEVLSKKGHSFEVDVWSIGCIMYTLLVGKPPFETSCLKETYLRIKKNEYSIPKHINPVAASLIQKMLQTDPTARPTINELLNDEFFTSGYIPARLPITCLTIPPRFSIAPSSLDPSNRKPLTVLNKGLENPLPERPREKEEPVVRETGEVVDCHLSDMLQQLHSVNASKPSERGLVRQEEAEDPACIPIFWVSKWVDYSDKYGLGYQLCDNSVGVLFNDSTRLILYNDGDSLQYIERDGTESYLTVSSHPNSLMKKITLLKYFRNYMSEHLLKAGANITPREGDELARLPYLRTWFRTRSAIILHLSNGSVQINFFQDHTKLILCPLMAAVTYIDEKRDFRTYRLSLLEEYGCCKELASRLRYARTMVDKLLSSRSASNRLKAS", "test": "Inhibition of PLK1 (unknown origin)"}, "[20]": {"molecular_target": "Cyclin-dependent kinase 1 (Homo sapiens) (UniProt P06493)", "test": "Inhibition of CDK1 phosphorylation in human MV4-11 cells assessed as reduction in phosphorylated CDK1 level by measuring residual activity at 50 uM pretreated for 2 hrs with proteasome inhibitor Bortezomib followed by incubation with compound for 3 hrs by Western blot analysis (reference value: 29%)", "assay_type": "cell-based"}, "[21]": {"molecular_target": "T1, Membrane-associated tyrosine- and threonine-specific cdc2-inhibitory kinase (Homo sapiens) (UniProt Q99640)", "T1 sequence (whole entry)": "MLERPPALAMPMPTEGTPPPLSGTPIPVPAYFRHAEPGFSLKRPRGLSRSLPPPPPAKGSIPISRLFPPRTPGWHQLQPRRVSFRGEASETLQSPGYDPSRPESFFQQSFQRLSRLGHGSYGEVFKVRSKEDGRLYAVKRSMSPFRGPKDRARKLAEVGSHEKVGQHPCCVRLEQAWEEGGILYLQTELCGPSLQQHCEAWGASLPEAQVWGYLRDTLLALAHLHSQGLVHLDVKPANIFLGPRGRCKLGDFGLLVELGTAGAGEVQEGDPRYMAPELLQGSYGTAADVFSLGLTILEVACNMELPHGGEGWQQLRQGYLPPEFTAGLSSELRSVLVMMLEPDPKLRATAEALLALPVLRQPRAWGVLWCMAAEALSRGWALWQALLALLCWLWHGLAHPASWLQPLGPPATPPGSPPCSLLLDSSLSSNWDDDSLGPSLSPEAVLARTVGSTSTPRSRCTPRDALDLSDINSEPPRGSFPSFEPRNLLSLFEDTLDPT", "test": "Induction of PKMYT1 degradation in human MV4-11 cells at 50 nM measured after 3 hrs by Western blot assay", "assay_type": "cell-based"}, "[22]": {"molecular_target": "Cyclin-dependent kinase 1 (Homo sapiens) (UniProt P06493)", "test": "Inhibition of CDK1 in human MV4-11 cells assessed as dephosphorylation at 50 nM pretreated for 2 hrs followed by replacement with fresh medium and measured after 24 hrs by Western blot method", "assay_type": "cell-based", "settings": "time 26.0 hrs"}, "[23]": {"test": "Downregulation of MAP3K4 in human MV4-11 cells assessed as 2 log fold change at 50 nM measured after 2 hrs by proteomic analysis", "assay_type": "functional"}, "[24]": {"tested_on": "MV4-11", "test": "Induction of apoptosis in human MV4-11 cells assessed as cleaved PARP expression at 100 nM incubated for 24 hrs by Western blot analysis", "assay_type": "functional, cell-based"}, "[25]": {"molecular_target": "Cyclin-dependent kinase 1 (Homo sapiens) (UniProt P06493)", "test": "Inhibition of CDK1 phosphorylation in human MV4-11 cells by measuring residual activity at 12.5 nM measured after 24 hrs by Western blot assay", "assay_type": "cell-based"}, "[26]": {"test": "Reduction in PKMYT1 level in human MV4-11 cells by measuring residual activity at 50 nM measured after 24 hrs by Western blot assay (reference value: 100%)", "assay_type": "functional"}, "[27]": {"test": "Half life in ICR mouse at 10 mg/kg, iv measured upto 360 mins", "assay_type": "ADME, organism-based", "settings": "in vivo"}, "[28]": {"molecular_target": "Cyclin-dependent kinase 1 (Homo sapiens) (UniProt P06493)", "test": "Inhibition of CDK1 phosphorylation in human MV4-11 cells by measuring residual activity at 50 nM measured after 24 hrs by Western blot assay", "assay_type": "cell-based"}, "[29]": {"test": "Observed AUCinfinity ICR mouse at 10 mg/kg, iv measured upto 360 mins", "assay_type": "ADME, organism-based", "parameters": "dose 10 mg/kg, time < 360 min, route iv", "settings": "in vivo"}, "[30]": {"test": "Observed MRTinfinity ICR mouse at 10 mg/kg, iv measured upto 360 mins", "assay_type": "ADME, organism-based", "settings": "in vivo"}, "[31]": {"tested_on": "MV4-11", "test": "Induction of apoptosis in human […] -/- MV4-11 cells at 50 to 400 nM measured after 48 hrs by AnnexinV/PI staining based flow cytometry analysis", "assay_type": "functional, cell-based", "settings": "dose 50-400 nM"}, "[32]": {"test": "Reduction in PKMYT1 level in human MV4-11 cells by measuring residual activity at 12.5 nM measured after 24 hrs by Western blot assay (reference value: 100%)", "assay_type": "functional"}, "[33]": {"tested_on": "MV4-11", "test": "Effect on Wee1 mRNA expression in human MV4-11 cells at 50 nM measured upto 72 hrs by qRT-PCR assay", "assay_type": "functional, cell-based"}, "[34]": {"test": "Reduction in PKMYT1 level in human MV4-11 cells by measuring residual activity at 25 nM measured after 24 hrs by Western blot assay (reference value: 100%)", "assay_type": "functional"}, "[35]": {"molecular_target": "Cyclin-dependent kinase 1 (Homo sapiens) (UniProt P06493)", "test": "Inhibition of CDK1 phosphorylation in human MV4-11 cells assessed as reduction in phosphorylated CDK1 level by measuring residual activity at 50 uM pretreated for 2 hrs with proteasome inhibitor Iberdomide followed by incubation with compound for 3 hrs by Western blot analysis (reference value: 29%)", "assay_type": "cell-based"}}, "note": "Calls of active or inactive are those of the source. The rule behind the calls is not given here.", "data": [{"smiles": "C=CCn1c(=O)c2cnc(Nc3ccc(N4CCN(CCCCNc5cccc6c5C(=O)N(C5CCC(=O)NC5=O)C6=O)CC4)cc3)nc2n1-c1cccc(C(C)(C)O)n1", "note": "(stereo not given)", "values": [{"measurement": "Activity", "setting": "[1]", "value": "inactive"}, {"measurement": "Activity", "setting": "[2]", "value": "Dose-Dependent Effect"}, {"measurement": "Activity", "setting": "[3]", "value": "Dose-Dependent Effect"}, {"measurement": "Activity", "setting": "[4]", "value": 102, "unit": "%"}, {"measurement": "Activity", "setting": "[5]", "value": "inactive"}, {"measurement": "Activity", "setting": "[6]", "value": 20, "unit": "%"}, {"measurement": "Activity", "setting": "[7]", "value": 80, "unit": "%"}, {"measurement": "Activity", "setting": "[8]", "value": 22, "unit": "%"}, {"measurement": "FC", "setting": "[9]", "value": 0.38}, {"measurement": "Activity", "setting": "[10]", "value": "inactive"}, {"measurement": "FC", "setting": "[11]", "value": -0.1}, {"measurement": "Activity", "setting": "[12]", "value": "Active"}, {"measurement": "Activity", "setting": "[13]", "value": 96, "unit": "%"}, {"measurement": "AUC(0-t) at 6 h", "setting": "[14]", "value": 4580, "unit": "ng·h/mL"}, {"measurement": "Activity", "setting": "[15]", "value": "Dose-Dependent Effect"}, {"measurement": "Activity", "setting": "[16]", "value": 25, "unit": "%"}, {"measurement": "Activity", "setting": "[17]", "value": 37, "unit": "%"}, {"measurement": "Activity", "setting": "[18]", "value": "inactive"}, {"measurement": "IC50", "setting": "[19]", "value": 2.97, "unit": "µM"}, {"measurement": "Activity", "setting": "[20]", "value": 120, "unit": "%"}, {"measurement": "Activity", "setting": "[21]", "value": "Active"}, {"measurement": "inhibition", "setting": "[22]", "value": "Active"}, {"measurement": "FC", "setting": "[23]", "value": -0.06}, {"measurement": "Activity", "setting": "[24]", "value": "Active"}, {"measurement": "Activity", "setting": "[25]", "value": 88, "unit": "%"}, {"measurement": "Activity", "setting": "[26]", "value": 38, "unit": "%"}, {"measurement": "half-life", "setting": "[27]", "value": 1.31, "unit": "h"}, {"measurement": "Activity", "setting": "[28]", "value": 50, "unit": "%"}, {"measurement": "AUC(0-inf)", "setting": "[29]", "value": 4660, "unit": "ng·h/mL"}, {"measurement": "MRT inf", "setting": "[30]", "value": 0.943, "unit": "h"}, {"measurement": "Activity", "setting": "[31]", "value": "inactive"}, {"measurement": "Activity", "setting": "[32]", "value": 113, "unit": "%"}, {"measurement": "Activity", "setting": "[33]", "value": "inactive"}, {"measurement": "Activity", "setting": "[34]", "value": 99, "unit": "%"}, {"measurement": "Activity", "setting": "[35]", "value": 75, "unit": "%"}]}]}
